Assay results: the supplement of paper PMC13380429
± gives the standard deviation of the averaged measurements.

How the values were obtained:
Conditions in all cases: 72 h
HepG2 [1] = experiment: relative viability EC50 (midpoint between 100% and the lowest measured viability); higher = less toxic
U2OS [2] = experiment: as above
Caco-2 [3] = experiment: as above
Vero E6 [4] = experiment: as above
Calu-3 [5] = experiment: as above
HepG2 [6] = experiment: cell viability relative to DMSO; higher = less toxic
U2OS [7] = experiment: as above
Caco-2 [8] = experiment: as above
Vero E6 [9] = experiment: as above
Calu-3 [10] = experiment: as above
HepG2 [11] = experiment: drug sensitivity score (DSS) for viability; higher = more toxic; extreme values may be limits of the assay
U2OS [12] = experiment: as above
Caco-2 [13] = experiment: as above
Vero E6 [14] = experiment: as above
Calu-3 [15] = experiment: as above

SMILES	relative viability EC50 (HepG2 [1])	relative viability EC50 (U2OS [2])	relative viability EC50 (Caco-2 [3])	relative viability EC50 (Vero E6 [4])	relative viability EC50 (Calu-3 [5])	cell viability (HepG2 [6]; 1 nM)	cell viability (HepG2 [6]; 10 nM)	cell viability (HepG2 [6]; 100 nM)	cell viability (HepG2 [6]; 1000 nM)	cell viability (HepG2 [6]; 10000 nM)	cell viability (U2OS [7]; 1 nM)	cell viability (U2OS [7]; 10 nM)	cell viability (U2OS [7]; 100 nM)	cell viability (U2OS [7]; 1000 nM)	cell viability (U2OS [7]; 10000 nM)	cell viability (Caco-2 [8]; 1 nM)	cell viability (Caco-2 [8]; 10 nM)	cell viability (Caco-2 [8]; 100 nM)	cell viability (Caco-2 [8]; 1000 nM)	cell viability (Caco-2 [8]; 10000 nM)	cell viability (Vero E6 [9]; 1 nM)	cell viability (Vero E6 [9]; 10 nM)	cell viability (Vero E6 [9]; 100 nM)	cell viability (Vero E6 [9]; 1000 nM)	cell viability (Vero E6 [9]; 10000 nM)	cell viability (Calu-3 [10]; 1 nM)	cell viability (Calu-3 [10]; 10 nM)	cell viability (Calu-3 [10]; 100 nM)	cell viability (Calu-3 [10]; 1000 nM)	cell viability (Calu-3 [10]; 10000 nM)	drug sensitivity score (HepG2 [11])	drug sensitivity score (U2OS [12])	drug sensitivity score (Caco-2 [13])	drug sensitivity score (Vero E6 [14])	drug sensitivity score (Calu-3 [15])
NS(=O)(=O)c1cc(Cl)c(Cl)c(S(N)(=O)=O)c1 [diclofenamide]	> 10 µM	> 10 µM	> 10 µM	> 10 µM	> 10 µM	97.6%	103%	100%	97%	101%	102%	98%	106%	98.7%	105%	102%	104%	112%	104%	98.9%	95.8%	102%	96%	99.1%	95.3%	88.2%	81.4%	87.1%	91%	88.9%	0	0	0	0	0
COc1ccc(O)cc1 [mequinol]	> 10 µM	> 10 µM	> 10 µM	> 10 µM	> 10 µM	103%	90%	85.6%	92.9%	79.7%	100%	109%	96.8%	98.7%	101%	97.8%	98.5%	105%	104%	97.9%	96.8%	94.1%	105%	103%	95.3%	104%	100%	105%	94.9%	92.8%	1.7	0	0	0	0
O=C(Nc1ccccc1C(=O)Nc1ccc(CCO)cc1)c1ccc([N+](=O)[O-])cc1 [KS-176]	> 10 µM	> 10 µM	> 10 µM	> 10 µM	> 10 µM	94%	95%	96.3%	95.2%	83.2%	96.7%	104%	97.6%	97.8%	93.4%	94%	94.8%	87.9%	97.5%	90.6%	98.2%	102%	99.2%	92.6%	93.1%	100%	87.9%	98.1%	102%	91.5%	0.1	0	0	0	0
Nc1c(S(=O)(=O)O)cc(Nc2cccc3ccccc23)c2c1C(=O)c1ccccc1C2=O	> 10 µM	> 10 µM	> 10 µM	> 10 µM	> 10 µM	103%	91.1%	91.1%	90%	86.8%	94.1%	98.4%	95.3%	95.4%	81.8%	91.3%	97.8%	101%	89.7%	90.1%	94.2%	98.3%	97.3%	93.7%	86.7%	101%	95.8%	91.5%	101%	93.2%	1	0.8	0.1	0	0
O=c1c(-n2ccnn2)c[nH]n1-c1cc(N2CCOCC2)ncn1 [molidustat]	> 10 µM	> 10 µM	> 10 µM	> 10 µM	> 10 µM	104%	95.4%	94.8%	93.2%	95.3%	98.1%	97.7%	94.7%	103%	91.4%	100%	107%	100%	97.2%	96%	108%	99.4%	104%	95.8%	90.9%	78.6%	97.9%	87.8%	104%	88%	0	0	0	0	0
CCNC(C)CN1CCc2c(c(=O)oc3ccccc23)C1 (stereo not given) [CI-923]	> 10 µM	> 10 µM	> 10 µM	> 10 µM	> 10 µM	99.6%	93.1%	105%	97.5%	109%	99%	99.3%	95.9%	101%	95.8%	103%	102%	103%	97.9%	93.6%	99.7%	103%	104%	95.9%	94.5%	99.5%	109%	100%	111%	99.1%	0	0	0	0	0
O=C(O)[C@H](CC(=O)N1C[C@H]2CCCC[C@H]2C1)Cc1ccccc1 [mitiglinide]	> 10 µM	> 10 µM	> 10 µM	> 10 µM	> 10 µM	98.2%	84.2%	91.5%	94.6%	104%	92.2%	104%	95.3%	116%	96.4%	99.9%	96.4%	95%	101%	94.9%	98.4%	104%	101%	98.5%	103%	86.3%	93%	88.2%	92.8%	104%	0	0	0	0	0
COc1cc2c(c(OC)c1OC)-c1c(cc3c(c1OC)OCO3)C[C@H](C)[C@@](C)(O)C2 [schisandrol-B]	> 10 µM	> 10 µM	> 10 µM	> 10 µM	> 10 µM	100%	114%	93.3%	98.4%	100%	101%	99.9%	105%	103%	97.9%	104%	92%	95.9%	95.9%	97.4%	102%	102%	102%	100%	97.8%	100%	92.8%	101%	105%	96.5%	0	0	0	0	0
CC[N+](CC)(CC)CC(=O)Nc1c(C)cccc1C [QX-314]	> 10 µM	> 10 µM	> 10 µM	> 10 µM	> 10 µM	95.3%	104%	92.6%	94.4%	95.7%	103%	96.9%	102%	95.7%	101%	91.8%	93.4%	97%	102%	95.6%	95.9%	99.2%	93.7%	97.8%	93.6%	102%	93.6%	89.1%	96.9%	89.2%	0	0	0	0	0
O=C(O)CC(S)C(=O)O (stereo not given) [mercaptosuccinic-acid]	> 10 µM	> 10 µM	> 10 µM	> 10 µM	> 10 µM	93.1%	93.7%	94.9%	96.3%	92.7%	103%	104%	94.3%	102%	96.2%	94%	106%	91.2%	95.7%	99.7%	96.1%	99.8%	96.8%	97.4%	99.3%	102%	101%	93.5%	94.7%	97.7%	0	0	0	0	0
C[C@H](CCC(=O)O)[C@H]1CC[C@H]2[C@@H]3[C@@H](O)C[C@@H]4C[C@H](O)CC[C@]4(C)[C@H]3CC[C@]12C [ursodiol]	> 10 µM	> 10 µM	> 10 µM	> 10 µM	> 10 µM	97.7 ± 6.4%	107 ± 4.5%	97.2 ± 8.1%	108 ± 7.4%	106 ± 4.2%	104%	94.3%	96.2%	93.2%	108%	106 ± 2.8%	102 ± 3.9%	98.4 ± 0.14%	94.9 ± 5.4%	85.8 ± 15%	97.3 ± 3.1%	101 ± 5.3%	100 ± 6.9%	104 ± 2.4%	103 ± 14%	97%	96.6%	102%	87.2%	105%	0	0	0.95 ± 1.3	0	0
CCOc1cccc(NC(=O)c2ccc(N3CCCC3)c(C(F)(F)F)c2)c1 [EPPTB]	> 10 µM	> 10 µM	> 10 µM	> 10 µM	> 10 µM	90.9%	96.2%	96.4%	91.5%	97.5%	101%	99.2%	97.4%	99.1%	90.9%	106%	101%	89%	92.7%	86.4%	101%	102%	97.3%	95.5%	101%	98.9%	99.5%	98.3%	102%	83.9%	0	0	1.6	0	0.2
N[C@@H](CS(=O)O)C(=O)O [L-cysteinesulfinic-acid]	> 10 µM	> 10 µM	> 10 µM	> 10 µM	> 10 µM	93.5%	90.9%	77.8%	89.9%	102%	99.5%	97.3%	98.5%	106%	101%	96.8%	93.2%	102%	105%	101%	91%	95.8%	93.2%	95.1%	102%	94%	97.3%	105%	111%	107%	0.2	0	0	0	0
CCCCN1CCC(CCC(=O)c2cc(Cl)c(N)cc2OC)CC1	> 10 µM	> 10 µM	> 10 µM	> 10 µM	> 10 µM	95.5%	98.2%	96.9%	82.8%	83.5%	104%	93.6%	95.8%	92.7%	94.1%	104%	100%	97.3%	92.7%	95.2%	101%	102%	99.2%	101%	94.1%	101%	99.5%	101%	98.3%	109%	2.4	0	0	0	0
